# Activity calls are given as the source filed them. No cut-off for these calls is given here.
# Columns and labels:
# Mus musculus [1] = assay: Antiinflammatory activity in ICR cutaneous abscess mouse model assessed as reduction in TNF-alpha expression in serum at 5 mg/kg,ip administered twice a day measured after 72 hrs by ELISA (reference value: 1.01 +/ 0.46 10^3 pg/ml); type: functional
# Mus musculus [2] = assay: Antiinflammatory activity in ICR cutaneous abscess mouse model assessed as reduction in IL-1alpha expression in serum at 5 mg/kg,ip administered twice a day measured after 72 hrs by ELISA (reference value: 9.9 +/ 0.42 10^1pg/ml); type: functional
# Mus musculus [3] = assay: Antiinflammatory activity in ICR cutaneous abscess mouse model assessed as reduction in IL-1beta expression in serum at 5 mg/kg,ip administered twice a day measured after 72 hrs by ELISA (reference value: 9.9 +/ 0.47 10^1pg/ml); type: functional
# Mus musculus [4] = assay: Antiinflammatory activity in ICR cutaneous abscess mouse model assessed as reduction in IL-2 expression in serum at 5 mg/kg,ip administered twice a day measured after 72 hrs by ELISA (reference value: 1.53 +/ 0.06 10^3pg/ml); type: functional
# Pseudomonas aeruginosa [5] = assay: Antimicrobial activity against Pseudomonas aeruginosa ATCC 27853 infected in ICR cutaneous abscess mouse model assessed as reduction in necrotic tissue area in infection site at 5 mg/kg,ip administered twice a day measured after 3 days by hematoxylin and eosin staining based analysis; type: functional, organism-based; conditions: time 3.0 day
# Pseudomonas aeruginosa [6] = assay: Antimicrobial activity against Pseudomonas aeruginosa ATCC 27853 infected in ICR cutaneous abscess mouse model assessed as complete epidermis structure at 5 mg/kg,ip administered twice a day measured after 3 days by hematoxylin and eosin staining based analysis; type: functional, organism-based; conditions: time 3.0 day
# [7] = test system: Staphylococcus epidermidis; assay: Antibacterial activity against Staphylococcus epidermidis ATCC 12228 assessed as inhibition of bacterial growth at pH 6.5 incubated for 24 hrs by NCCLS protocol based method; type: functional
# Staphylococcus aureus [8] = assay: Antibacterial activity against methicillin-resistant Staphylococcus aureus ATCC 43300 assessed as inhibition of bacterial growth at pH 7.4 incubated for 24 hrs by NCCLS protocol based method; type: functional
# Salmonella typhimurium [9] = assay: Antibacterial activity against Salmonella enterica subsp. enterica serovar Typhimurium C77-31 assessed as inhibition of bacterial growth at pH 7.4 incubated for 24 hrs by NCCLS protocol based method; type: functional
# Salmonella typhimurium [10] = assay: Antibacterial activity against Salmonella typhimurium ATCC 14028 assessed as inhibition of bacterial growth at pH 7.4 incubated for 24 hrs by NCCLS protocol based method; type: functional, Salmonella enterica subsp. enterica serovar Typhimurium; conditions: Salmonella enterica
# Escherichia coli [11] = assay: Antibacterial activity against Escherichia coli ATCC 25922 assessed as inhibition of bacterial growth at pH 7.4 incubated for 24 hrs by NCCLS protocol based method; type: functional
# Pseudomonas aeruginosa [12] = assay: Antibacterial activity against Pseudomonas aeruginosa ATCC 27853 assessed as inhibition of bacterial growth at pH 7.4 incubated for 24 hrs by NCCLS protocol based method; type: functional
# Staphylococcus aureus [13] = assay: Antibacterial activity against Staphylococcus aureus ATCC 29213 assessed as inhibition of bacterial growth at pH 7.4 incubated for 24 hrs by NCCLS protocol based method; type: functional
# [14] = test system: Staphylococcus epidermidis; assay: Antibacterial activity against Staphylococcus epidermidis ATCC 12228 assessed as inhibition of bacterial growth at pH 7.4 incubated for 24 hrs by NCCLS protocol based method; type: functional
# Staphylococcus aureus [15] = assay: Antibacterial activity against Staphylococcus aureus ATCC 25923 assessed as inhibition of bacterial growth at pH 7.4 incubated for 24 hrs by NCCLS protocol based method; type: functional
# Salmonella typhimurium [16] = assay: Antibacterial activity against Salmonella enterica subsp. enterica serovar Typhimurium C77-31 assessed as inhibition of bacterial growth at pH 6.5 incubated for 24 hrs by NCCLS protocol based method; type: functional
# Salmonella typhimurium [17] = assay: Antibacterial activity against Salmonella typhimurium ATCC 14028 assessed as inhibition of bacterial growth at pH 6.5 incubated for 24 hrs by NCCLS protocol based method; type: functional, Salmonella enterica subsp. enterica serovar Typhimurium; conditions: Salmonella enterica
# Escherichia coli [18] = assay: Antibacterial activity against Escherichia coli ATCC 25922 assessed as inhibition of bacterial growth at pH 6.5 incubated for 24 hrs by NCCLS protocol based method; type: functional
# Pseudomonas aeruginosa [19] = assay: Antibacterial activity against Pseudomonas aeruginosa ATCC 27853 assessed as inhibition of bacterial growth at pH 6.5 incubated for 24 hrs by NCCLS protocol based method; type: functional
# Staphylococcus aureus [20] = assay: Antibacterial activity against Staphylococcus aureus ATCC 29213 assessed as inhibition of bacterial growth at pH 6.5 incubated for 24 hrs by NCCLS protocol based method; type: functional
# Staphylococcus aureus [21] = assay: Antibacterial activity against Staphylococcus aureus ATCC 25923 assessed as inhibition of bacterial growth at pH 6.5 incubated for 24 hrs by NCCLS protocol based method; type: functional
# Staphylococcus aureus [22] = assay: Antibacterial activity against methicillin-resistant Staphylococcus aureus ATCC 43300 assessed as inhibition of bacterial growth at pH 6.5 incubated for 24 hrs by NCCLS protocol based method; type: functional
# [23] = Hemolytic activity in human RBC assessed as hemoglobin release at pH 7.4 incubated for 1 hr; type: toxicity, cell-based; conditions: erythrocyte, pH 7.4, 1 h
# [24] = Hemolytic activity against human RBC assessed as hemoglobin release at pH 6.5 incubated for 1 hrs; type: toxicity, cell-based; conditions: erythrocyte, pH 6.5, 1 h
# [25] = Cytotoxicity against mouse RAW264.7 cells assessed as inhibition of cell growth at pH 7.4 measured after 24 hrs by MTT assay; type: toxicity, cell-based
# [26] = Cytotoxicity against mouse RAW264.7 cells assessed as inhibition of cell growth at pH 6.5 measured after 24 hrs by MTT assay; type: toxicity, cell-based
# [27] = Ratio of MHC for hemolytic activity against human RBC assessed as hemoglobin release at pH 6.5 to MHC for hemolytic activity against human RBC assessed as hemoglobin release at pH 7.4; type: toxicity, cell-based, Erythrocyte; conditions: human red blood cells (RBC)
Substance,MIC [7] [µM],MIC (Staphylococcus aureus [8]) [µM],MIC (Salmonella typhimurium [9]) [µM],MIC (Salmonella typhimurium [10]) [µM],MIC (Escherichia coli [11]) [µM],MIC (Pseudomonas aeruginosa [12]) [µM],MIC (Staphylococcus aureus [13]) [µM],MIC [14] [µM],MIC (Staphylococcus aureus [15]) [µM],MIC (Salmonella typhimurium [16]) [µM],MIC (Salmonella typhimurium [17]) [µM],MIC (Escherichia coli [18]) [µM],MIC (Pseudomonas aeruginosa [19]) [µM],MIC (Staphylococcus aureus [20]) [µM],MIC (Staphylococcus aureus [21]) [µM],MIC (Staphylococcus aureus [22]) [µM],MHC10 [23] [µM],MHC10 [24] [µM],IC50 at 24 h [25] [µM],IC50 at 24 h [26] [µM],also measured
COLISTIN,–,–,–,–,–,–,–,–,–,–,–,–,–,–,–,–,–,–,–,–,Activity (Mus musculus [1]): 8.06 10^2pg/ml; Activity (Mus musculus [2]): 7.95 10^1pg/ml; Activity (Mus musculus [3]): 7.23 10^1pg/ml; Activity (Mus musculus [4]): 1.11 10^3pg/ml; Activity (Pseudomonas aeruginosa [5]): Active; Activity (Pseudomonas aeruginosa [6]): Active
H-DLDHLIPHVIHGLVHAIHH-NH2,> 64,> 64,> 64,> 64,> 64,> 64,> 64,> 64,> 64,> 64,> 64,32,> 64,> 64,> 64,> 64,> 128,> 128,> 128,> 128,–
H-ELEHLIPHVIHGLVHAIHH-NH2,> 64,> 64,> 64,> 64,> 64,> 64,> 64,> 64,> 64,> 64,> 64,32,> 64,> 64,> 64,> 64,> 128,> 128,> 128,> 128,–
H-FLDHLIPHVIHGLVHAIHH-NH2,> 64,> 64,> 64,> 64,> 64,> 64,> 64,> 64,> 64,16,16,4,8,> 64,> 64,> 64,> 128,> 128,67.9,67.9,–
H-FLFHLIPHVIHGLVHAIHH-NH2,2,4,64,64,4,64,4,4,4,8,16,2,2,4,2,2,16,8,12.3,4.79,selectivity ratio [27]: 0.5

# Source: ChEMBL document CHEMBL5046301, “pH-Responsive Antimicrobial Peptide with Selective Killing Activity for Bacterial Abscess Therapy” (J Med Chem, 2022)
